Experiments:
recombinant CK2A1 = recombinant CK2A1 (Homo sapiens (Human), UniProt P68400); assay: CK2 kinase assay (CK2A1); type: biochemical; conditions: Table B, comparison compound of WO 2007/038314 / US 2008/0045536
recombinant CK2A2 = recombinant CK2A2 (Homo sapiens (Human), UniProt P19784); assay: CK2 kinase assay (CK2A2); type: biochemical; conditions: Table B, comparison compound of WO 2007/038314 / US 2008/0045536
Sequence of recombinant CK2A2 (P19784 whole entry): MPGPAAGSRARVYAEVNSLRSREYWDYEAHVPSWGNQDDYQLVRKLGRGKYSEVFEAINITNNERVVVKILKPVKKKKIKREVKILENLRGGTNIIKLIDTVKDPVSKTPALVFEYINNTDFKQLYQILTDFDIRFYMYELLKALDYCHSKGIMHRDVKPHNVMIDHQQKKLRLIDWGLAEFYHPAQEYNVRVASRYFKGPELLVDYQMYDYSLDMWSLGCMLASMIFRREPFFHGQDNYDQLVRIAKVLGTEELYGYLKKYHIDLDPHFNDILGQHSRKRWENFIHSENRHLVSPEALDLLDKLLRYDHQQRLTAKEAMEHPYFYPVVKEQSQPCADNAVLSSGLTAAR

Sequence of recombinant CK2A1 (P68400 whole entry): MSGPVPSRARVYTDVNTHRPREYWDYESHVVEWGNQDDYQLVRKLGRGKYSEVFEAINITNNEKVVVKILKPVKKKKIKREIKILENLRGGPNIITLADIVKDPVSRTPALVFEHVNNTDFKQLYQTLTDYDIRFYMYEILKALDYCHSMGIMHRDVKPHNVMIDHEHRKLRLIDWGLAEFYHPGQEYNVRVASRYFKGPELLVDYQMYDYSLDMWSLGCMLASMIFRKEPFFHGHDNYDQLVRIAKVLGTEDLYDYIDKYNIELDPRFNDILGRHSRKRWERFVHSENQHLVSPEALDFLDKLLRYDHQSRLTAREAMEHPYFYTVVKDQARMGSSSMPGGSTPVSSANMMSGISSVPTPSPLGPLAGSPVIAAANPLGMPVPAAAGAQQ

- IC50 (recombinant CK2A1): 1800 nM
- IC50 (recombinant CK2A2): 331 nM
Structure (SMILES): CCOc1ccc(Nc2nc(N[C@H]3CC[C@@H](N)CC3)nn3ccnc23)cc1 [XIII]

Reference: US8940736B2, “Imidazotriazinecarbonitriles useful as kinase inhibitors” (Bristol-Myers Squibb Company, priority 2012, dated 2015)
